Laboratory results published in US8664276B2, “Stilbene analogs and methods of treating cancer” (University of Kentucky Research Foundation, priority 2011, dated 2014).

Assays:
MAT2A = MAT2A (Homo sapiens, UniProt P31153); assay: Streptavidin bead pull-down binding assay, GST-MAT2A; set-up: GST (N); made in house; settings: recombinant protein from E. coli
Method: (§1) MAT2A and MAT2B were cloned into pGEX6p3 vector. The constructs were transfected into E. coli BL21. The GST-fusion proteins were induced by IPTG and purified by glutathione beads as described previously (See Liu, beta-Trcp couples beta-catenin phosphorylation-degradation and regulates Xenopus axis formation. Proc Natl Acad Sci USA 1999, 96, 6273-8). For the binding assay, purified proteins were incubated with streptavidin beads and biotinylated FlDAS 13 described above. Eluted proteins were analyzed by western blot with antibodies against GST, MAT2A or MAT2B.
(§2) Since MAT2A and MAT2B bind each other and form a complex, to determine which subunit directly interacts with FIDAS reagents, recombinant MAT2A and MAT2B were purified and tested for interaction with FIDAS. Briefly, GST-MAT2A and GST-MAT2B fusion proteins were expressed and purified from E. coli. These proteins were incubated with streptavidin beads with or without biotinylated derivative 13 (FIG. 9A). The binding proteins were eluted by 2.5 mM D-biotin and analyzed by Western blot with an anti-GST-Ab.

MAT2A-K265L = biological target: T1, MAT2A-K265L (Homo sapiens, UniProt P31153, K265L); assay: In vitro binding assay, mutant MAT2A (K265L); settings: lysine 265 mutated to leucine
T1 construct: made in house
T1 sequence (P31153 whole entry K265L): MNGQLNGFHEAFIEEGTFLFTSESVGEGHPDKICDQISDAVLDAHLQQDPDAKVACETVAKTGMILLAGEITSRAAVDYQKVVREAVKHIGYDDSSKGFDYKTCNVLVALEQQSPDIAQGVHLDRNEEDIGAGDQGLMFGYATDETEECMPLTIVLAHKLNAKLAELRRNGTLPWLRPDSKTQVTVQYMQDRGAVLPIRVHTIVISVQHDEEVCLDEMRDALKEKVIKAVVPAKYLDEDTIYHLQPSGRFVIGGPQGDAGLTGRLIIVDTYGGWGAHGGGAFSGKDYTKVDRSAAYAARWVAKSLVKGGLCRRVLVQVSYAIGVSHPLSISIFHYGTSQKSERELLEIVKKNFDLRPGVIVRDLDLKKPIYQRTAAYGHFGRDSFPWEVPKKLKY
Description: To test if the halogenated stilbene analogs of the present disclosure also bind MAT1A, a His-tagged MAT1A was cloned in and purified from E. coli. […] According to published MAT structures, several key residues are involved in substrate binding and catalysis. Among these key residues, lysine 265 is conserved between MAT1A and MAT2A and among different species. […] Taken together, the FlDAS reagents are specific inhibitors of MAT2A, and are promising drug candidates for multiple cancers as well as metabolic diseases.

MAT2B = biological target: T2, MAT2B (Homo sapiens, UniProt Q9NZL9); assay: Streptavidin bead pull-down binding assay, GST-MAT2B; settings: recombinant protein from E. coli
T2 construct: made in house; host or cells: E. coli BL21
T2 sequence (Q9NZL9 1-334): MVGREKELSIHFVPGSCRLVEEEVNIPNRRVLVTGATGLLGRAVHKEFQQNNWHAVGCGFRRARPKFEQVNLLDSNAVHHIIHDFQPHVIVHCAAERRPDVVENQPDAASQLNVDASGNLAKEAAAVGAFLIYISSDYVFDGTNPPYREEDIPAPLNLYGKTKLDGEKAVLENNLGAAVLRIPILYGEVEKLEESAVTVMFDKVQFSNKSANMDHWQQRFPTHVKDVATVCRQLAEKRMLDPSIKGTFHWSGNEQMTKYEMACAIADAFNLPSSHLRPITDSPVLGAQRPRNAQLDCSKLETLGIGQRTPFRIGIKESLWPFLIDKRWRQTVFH
Method: as §1, §2

Sequence of MAT2A (P31153 whole entry, the tested form may be a part): as the sequence (P31153 whole entry K265L) above, with L265K counted along it

Compound: CN(CC(=O)NCCOCCOCCNC(=O)CCCCC1SCC2NC(=O)NC21)c1ccc(C=Cc2c(F)cccc2F)cc1 (stereo not drawn) [compound 13, N-(2-(4-(2,6-Difluorostyryl)phenyl)-4-oxo-8,11-dioxa-2,5-diazamidecan-13-yl)-5-(2-oxohexahydro-1H-thieno[3,4-d]imidazol-4-yl)pentanamide]
- binding to MAT2A (MAT2A): directly binds
- binding to mutant MAT2A (K265L) (MAT2A-K265L): significantly decreased
- binding to MAT2B (MAT2B): indirectly through MAT2A
